Measured values taken from patent US10799496B2, “Naphthylenyl compounds for long-acting injectable compositions and related methods” (priority 2018, dated 2020).

Legend:
[1] = Whole blood stability assay; format: in vitro ADME; details: prodrug 50 nM, fresh pooled human whole blood, 37 degrees C.; read-out: t1/2 at 37 degrees C. in human whole blood
Protocol: Naltrexone prodrug stability was assessed using freshly collected whole blood (within 24-hr collection) from pooled human (n=3) donors. The incubation mixtures were prepared by spiking the prodrugs into pre-warmed (37 degrees C.) fresh whole blood to a final concentration of 50 nM. After gentle mixing, aliquots of incubation mixtures were immediately transferred into four different 96-deep well plates. One plate was used for each time point. The plates were incubated at 37 degrees C. at a shaking speed of 100 rpm. At time points 15, 30, 60 and 120 minutes, the reaction was quenched by addition of a mixture of water and acetonitrile containing the internal standard (naltrexone-D3). Time point 0 minutes was prepared separately by spiking the prodrugs into a quenched whole blood to obtain a final concentration of 50 nM. All samples were vortexed at a low speed for 15 min and centrifuged at 3900 rpm for 15 min. Supernatants were transferred into 96-well plates for LC-MS/MS analysis to monitor the depletion of the prodrugs and the formation of naltrexone.
The amount of remaining prodrug and released naltrexone for each sample was quantitated against the calibration curves prepared with the whole blood. The human whole blood was purchased from BioreclamationIVT (Westbury, N.Y., USA). Naltrexone-D3 was purchased from CERILLIANT® (Round Rock, Tex., USA). […] Where multiple runs have been completed, average values are reported.

[2] = Pharmacokinetic evaluation of the release of naltrexone from Compound 2 in rats following a single intramuscular injection; format: in vivo, Sprague-Dawley rats; details: for Compound 2i conc.: rat plasma
Protocol: Five male Sprague-Dawley rats were allowed to acclimate to the test facility for at least 2 days prior to study start. For dose administration of Compound 2, the rats were lightly anesthetized with isofluorane, the hind leg shaved and dosed intramuscularly with the formulation using a 21G needle. […] Serial whole blood samples were collected via sublingual route (˜150 μL) at 1, 8, and 24 hours post dose, and at 2, 4, 7, 10, 14, 17, 21, 24, 28, 35, 42, 49, 56, 63, 71, 78, 85, and 91 days post dose.
Blood samples were placed into K2EDTA blood collection tubes. After collection, blood samples were maintained chilled (on wet ice) and centrifuged (11,500 rpm for 2 minutes at 5 degrees C.) within 30 minutes to obtain plasma. Plasma was transferred into a single vial, 1.5 mL screw cap micro-centrifuge tube with inserts and stored at −80 degrees C. until analysis.
The formulation dosed was a crystalline suspension of Compound 2 (46 milligrams of Compound 2 dosed per animal), wherein the crystalline test article was characterized with a particle size distribution of Dv10=12.9 μm, Dv50=31.5 μm, and Dv90=63.1 μm (as measured via laser diffraction). The formulation was prepared the day before dosing. Details of the formulation dosed are described in Table D below.
Results of the above intramuscular rat study of Compound 2 are shown in Tables E and F. In particular, Table E reports the average blood plasma levels of naltrexone in rat (n=5) over 91 days following intramuscular administration.

O=C(Cc1cccc2c(CC(=O)Oc3ccc4c5c3O[C@H]3C(=O)CC[C@@]6(O)[C@@H](C4)N(CC4CC4)CC[C@]536)cccc12)Oc1ccc2c3c1O[C@H]1C(=O)CC[C@@]4(O)[C@@H](C2)N(CC2CC2)CC[C@]314 [Compound 1, bis((4R,4aS,7aR,12bS)-3-(cyclopropylmethyl)-4a-hydroxy-7-oxo-2,3,4,4a,5,6,7,7a-octahydro-1H-4,12-methanobenzofuro[3,2-e]isoquinolin-9-yl) 2,2′-(naphthalene-1,5-diyl)diacetate]
26.4 min: half-life at 50 nM [1]

O=C(Cc1ccc2ccc(CC(=O)Oc3ccc4c5c3O[C@H]3C(=O)CC[C@@]6(O)[C@@H](C4)N(CC4CC4)CC[C@]536)cc2c1)Oc1ccc2c3c1O[C@H]1C(=O)CC[C@@]4(O)[C@@H](C2)N(CC2CC2)CC[C@]314 [Compound 10, bis((4R,4aS,7aR,12bS)-3-(cyclopropylmethyl)-4a-hydroxy-7-oxo-2,3,4,4a,5,6,7,7a-octahydro-1H-4,12-methanobenzofuro[3,2-e]isoquinolin-9-yl) 2,2′-(naphthalene-2,7-diyl)diacetate]
14.7 min: half-life at 50 nM [1]

O=C(CCc1ccc2cc(CCC(=O)Oc3ccc4c5c3O[C@H]3C(=O)CC[C@@]6(O)[C@@H](C4)N(CC4CC4)CC[C@]536)ccc2c1)Oc1ccc2c3c1O[C@H]1C(=O)CC[C@@]4(O)[C@@H](C2)N(CC2CC2)CC[C@]314 [Compound 8, bis((4R,4aS,7aR,12bS)-3-(cyclopropylmethyl)-4a-hydroxy-7-oxo-2,3,4,4a,5,6,7,7a-octahydro-1H-4,12-methanobenzofuro[3,2-e]isoquinolin-9-yl) 3,3′-(naphthalene-2,6-diyl)dipropionate]
26.3 min: half-life at 50 nM [1]

O=C(Cc1ccc2c(Cl)c(CC(=O)Oc3ccc4c5c3O[C@H]3C(=O)CC[C@@]6(O)[C@@H](C4)N(CC4CC4)CC[C@]536)ccc2c1Cl)Oc1ccc2c3c1O[C@H]1C(=O)CC[C@@]4(O)[C@@H](C2)N(CC2CC2)CC[C@]314 [Compound 6, bis((4R,4aS,7aR,12bS)-3-(cyclopropylmethyl)-4a-hydroxy-7-oxo-2,3,4,4a,5,6,7,7a-octahydro-1H-4,12-methanobenzofuro[3,2-e]isoquinolin-9-yl) 2,2′-(1,5-dichloronaphthalene-2,6-diyl)diacetate]
25.7 min: half-life at 50 nM [1]

O=C(O)Cc1ccc2cc(CC(=O)Oc3ccc4c5c3O[C@H]3C(=O)CC[C@@]6(O)[C@@H](C4)N(CC4CC4)CC[C@]536)ccc2c1 [Compound 2i, 2-(6-(2-(((4R,4aS,7aR,12bS)-3-(cyclopropylmethyl)-4a-hydroxy-7-oxo-2,3,4,4a,5,6,7,7a-octahydro-1H-4,12-methanobenzofuro[3,2-e]isoquinolin-9-yl)oxy)-2-oxoethyl)naphthalen-2-yl)acetic acid]
<0.2 ng/mL: Compound 2i conc. ([2]; single i.m. dose of Compound 2, day 0.042 (1 hr), Rat 1) | Compound 2i conc. ([2]; single i.m. dose of Compound 2, day 0.042 (1 hr), Rat 2) | Compound 2i conc. ([2]; single i.m. dose of Compound 2, day 0.042 (1 hr), Rat 3) | Compound 2i conc. ([2]; single i.m. dose of Compound 2, day 0.042 (1 hr), Rat 4) | Compound 2i conc. ([2]; single i.m. dose of Compound 2, day 0.042 (1 hr), Rat 5) | Compound 2i conc. ([2]; single i.m. dose of Compound 2, day 0.33 (8 hr), Rat 1) | Compound 2i conc. ([2]; single i.m. dose of Compound 2, day 0.33 (8 hr), Rat 2) | Compound 2i conc. ([2]; single i.m. dose of Compound 2, day 0.33 (8 hr), Rat 3) | Compound 2i conc. ([2]; single i.m. dose of Compound 2, day 0.33 (8 hr), Rat 4) | Compound 2i conc. ([2]; single i.m. dose of Compound 2, day 0.33 (8 hr), Rat 5) | Compound 2i conc. ([2]; single i.m. dose of Compound 2, day 1, Rat 1) | Compound 2i conc. ([2]; single i.m. dose of Compound 2, day 1, Rat 2) | Compound 2i conc. ([2]; single i.m. dose of Compound 2, day 1, Rat 3) | Compound 2i conc. ([2]; single i.m. dose of Compound 2, day 1, Rat 4) | Compound 2i conc. ([2]; single i.m. dose of Compound 2, day 1, Rat 5) | Compound 2i conc. ([2]; single i.m. dose of Compound 2, day 2, Rat 1) | Compound 2i conc. ([2]; single i.m. dose of Compound 2, day 2, Rat 2) | Compound 2i conc. ([2]; single i.m. dose of Compound 2, day 2, Rat 3) | Compound 2i conc. ([2]; single i.m. dose of Compound 2, day 2, Rat 4) | Compound 2i conc. ([2]; single i.m. dose of Compound 2, day 2, Rat 5) | Compound 2i conc. ([2]; single i.m. dose of Compound 2, day 4, Rat 1) | Compound 2i conc. ([2]; single i.m. dose of Compound 2, day 4, Rat 2) | Compound 2i conc. ([2]; single i.m. dose of Compound 2, day 4, Rat 3) | Compound 2i conc. ([2]; single i.m. dose of Compound 2, day 4, Rat 4) | Compound 2i conc. ([2]; single i.m. dose of Compound 2, day 4, Rat 5) | Compound 2i conc. ([2]; single i.m. dose of Compound 2, day 7, Rat 1) | Compound 2i conc. ([2]; single i.m. dose of Compound 2, day 7, Rat 2) | Compound 2i conc. ([2]; single i.m. dose of Compound 2, day 7, Rat 3) | Compound 2i conc. ([2]; single i.m. dose of Compound 2, day 7, Rat 4) | Compound 2i conc. ([2]; single i.m. dose of Compound 2, day 7, Rat 5) | Compound 2i conc. ([2]; single i.m. dose of Compound 2, day 10, Rat 5)
<0.1 ng/mL: Compound 2i conc. ([2]; single i.m. dose of Compound 2, day 49, Rat 1) | Compound 2i conc. ([2]; single i.m. dose of Compound 2, day 49, Rat 2) | Compound 2i conc. ([2]; single i.m. dose of Compound 2, day 49, Rat 3) | Compound 2i conc. ([2]; single i.m. dose of Compound 2, day 49, Rat 4) | Compound 2i conc. ([2]; single i.m. dose of Compound 2, day 56, Rat 1) | Compound 2i conc. ([2]; single i.m. dose of Compound 2, day 56, Rat 2) | Compound 2i conc. ([2]; single i.m. dose of Compound 2, day 56, Rat 3) | Compound 2i conc. ([2]; single i.m. dose of Compound 2, day 56, Rat 4) | Compound 2i conc. ([2]; single i.m. dose of Compound 2, day 56, Rat 5) | Compound 2i conc. ([2]; single i.m. dose of Compound 2, day 63, Rat 1) | Compound 2i conc. ([2]; single i.m. dose of Compound 2, day 63, Rat 2) | Compound 2i conc. ([2]; single i.m. dose of Compound 2, day 63, Rat 3) | Compound 2i conc. ([2]; single i.m. dose of Compound 2, day 63, Rat 4) | Compound 2i conc. ([2]; single i.m. dose of Compound 2, day 63, Rat 5) | Compound 2i conc. ([2]; single i.m. dose of Compound 2, day 71, Rat 1) | Compound 2i conc. ([2]; single i.m. dose of Compound 2, day 71, Rat 2) | Compound 2i conc. ([2]; single i.m. dose of Compound 2, day 71, Rat 3) | Compound 2i conc. ([2]; single i.m. dose of Compound 2, day 71, Rat 4) | Compound 2i conc. ([2]; single i.m. dose of Compound 2, day 71, Rat 5) | Compound 2i conc. ([2]; single i.m. dose of Compound 2, day 78, Rat 1) | Compound 2i conc. ([2]; single i.m. dose of Compound 2, day 78, Rat 2) | Compound 2i conc. ([2]; single i.m. dose of Compound 2, day 78, Rat 3) | Compound 2i conc. ([2]; single i.m. dose of Compound 2, day 78, Rat 4) | Compound 2i conc. ([2]; single i.m. dose of Compound 2, day 78, Rat 5) | Compound 2i conc. ([2]; single i.m. dose of Compound 2, day 85, Rat 1) | Compound 2i conc. ([2]; single i.m. dose of Compound 2, day 85, Rat 2) | Compound 2i conc. ([2]; single i.m. dose of Compound 2, day 85, Rat 3) | Compound 2i conc. ([2]; single i.m. dose of Compound 2, day 85, Rat 4) | Compound 2i conc. ([2]; single i.m. dose of Compound 2, day 85, Rat 5) | Compound 2i conc. ([2]; single i.m. dose of Compound 2, day 91, Rat 1) | Compound 2i conc. ([2]; single i.m. dose of Compound 2, day 91, Rat 2) | Compound 2i conc. ([2]; single i.m. dose of Compound 2, day 91, Rat 3) | Compound 2i conc. ([2]; single i.m. dose of Compound 2, day 91, Rat 4) | Compound 2i conc. ([2]; single i.m. dose of Compound 2, day 91, Rat 5)
generally low to not measurable: plasma concentrations of parent Compound 2 and the resultant intermediate ([2]; rat, single i.m. dose of Compound 2, over 91 days)
